Normal melting temperature data for one compound are collected here from the NIST ThermoML archive (doi:10.1021/je060348v).

± gives the expanded uncertainty stated by the source.

The conditions of the series: Crystal; visual observation.

For the compound `OC[C@@H](O)[C@H](O)[C@@H](O)CO` [xylitol], the Normal melting temperature was 94.50 ± 1 °C.
